Data from ChEMBL document CHEMBL5465560, “Selectivity Literature for EUbOPEN Chemogenomic Library” (2024).

Assays:
[1] = molecular target: T1, Serine/threonine-protein kinase ICK (Homo sapiens) (UniProt Q9UPZ9); assay: Selectivity interaction (KinomeScan (DiscoverX)) EUB0000229b ICK; settings: at 10 µM
T1 sequence (whole entry): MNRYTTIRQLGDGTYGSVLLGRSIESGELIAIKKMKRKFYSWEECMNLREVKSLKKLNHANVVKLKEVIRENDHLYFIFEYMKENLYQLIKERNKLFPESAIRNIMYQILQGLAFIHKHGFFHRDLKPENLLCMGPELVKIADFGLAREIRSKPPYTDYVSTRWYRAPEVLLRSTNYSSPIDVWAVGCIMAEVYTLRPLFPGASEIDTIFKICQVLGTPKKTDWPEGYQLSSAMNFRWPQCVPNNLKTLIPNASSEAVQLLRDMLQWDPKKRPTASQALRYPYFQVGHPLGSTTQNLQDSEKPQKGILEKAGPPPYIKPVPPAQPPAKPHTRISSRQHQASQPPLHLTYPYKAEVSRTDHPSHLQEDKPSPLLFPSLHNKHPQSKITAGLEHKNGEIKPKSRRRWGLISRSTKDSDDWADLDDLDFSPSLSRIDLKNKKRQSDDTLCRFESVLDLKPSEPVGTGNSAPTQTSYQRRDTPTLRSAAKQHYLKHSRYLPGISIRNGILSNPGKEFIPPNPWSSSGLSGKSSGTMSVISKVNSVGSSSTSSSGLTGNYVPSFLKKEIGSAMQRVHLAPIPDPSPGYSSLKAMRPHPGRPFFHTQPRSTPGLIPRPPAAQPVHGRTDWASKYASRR

[2] = molecular target: ALK tyrosine kinase receptor (Homo sapiens, UniProt Q9UM73); assay: Selectivity interaction (KinomeScan (DiscoverX)) EUB0000045b ALK
[3] = molecular target: Phosphorylase b kinase gamma catalytic chain, skeletal muscle/heart isoform (Homo sapiens) (UniProt Q16816); assay: Selectivity interaction (KinomeScan (DiscoverX)) EUB0000045b PHKG1
[4] = molecular target: Muscarinic acetylcholine receptor M5 (Homo sapiens) (UniProt P08912); assay: Selectivity interaction (GPCR panel (PDSP screen)) EUB0001079a CHRM5; settings: at 10 µM
[5] = test system: Tyrosine-protein kinase ABL1 (Homo sapiens), P00519 [H396P]; assay: (§1) Selectivity interaction (LanthaScreen Eu Kinase Binding Assay) EUB0001632a ABL1; settings: at 10 µM
[6] = test system: Tyrosine-protein kinase ABL1 (Homo sapiens), P00519 [M351T]; assay: as §1; settings: at 10 µM
[7] = test system: Tyrosine-protein kinase ABL1 (Homo sapiens), P00519 [Q252H]; assay: as §1; settings: at 10 µM
[8] = test system: Tyrosine-protein kinase ABL1 (Homo sapiens), P00519 [F317I]; assay: Selectivity interaction (KinomeScan (DiscoverX)) EUB0000666a ABL1; settings: at 10 µM
[9] = molecular target: Mitogen-activated protein kinase 14 (Homo sapiens, UniProt Q16539); assay: Selectivity interaction (KinomeScan (DiscoverX)) EUB0000666a MAPK14; settings: at 10 µM
[10] = molecular target: Beta-2 adrenergic receptor (Homo sapiens, UniProt P07550); assay: Selectivity interaction (Beta 2 adrenergic receptor assay, human recombinant ) EUB0000877a ADRB2
[11] = molecular target: MAP kinase-interacting serine/threonine-protein kinase 2 (Homo sapiens, UniProt Q9HBH9); assay: Selectivity interaction (KinomeScan (DiscoverX)) EUB0000618a MKNK2; settings: at 10 µM
[12] = molecular target: Cyclin-dependent kinase 5/CDK5 activator 1 (Homo sapiens) (UniProt Q00535+Q15078); assay: Selectivity interaction (Kinase panel (Invitrogen)) EUB0000639a CDK5; assay type: protein-complex assay; settings: at 200 nM
[13] = molecular target: Dual specificity tyrosine-phosphorylation-regulated kinase 1B (Homo sapiens, UniProt Q9Y463); assay: Selectivity interaction (Kinase panel (Invitrogen)) EUB0000639a DYRK1B; settings: at 200 nM
[14] = molecular target: Tyrosine-protein kinase Fgr (Homo sapiens) (UniProt P09769); assay: Selectivity interaction (Kinase panel (Invitrogen)) EUB0000639a FGR; settings: at 200 nM
[15] = molecular target: Dual specificity mitogen-activated protein kinase kinase 1 (Homo sapiens, UniProt Q02750); assay: Selectivity interaction (Kinase panel (Invitrogen)) EUB0000639a MAP2K1; settings: at 200 nM
[16] = molecular target: T2, Serine/threonine-protein kinase greatwall (Homo sapiens) (UniProt Q96GX5); assay: Selectivity interaction (ActivX KiNativ screen (kinase selectivity in THP-1 cell lysates)) EUB0000639a MASTL; assay type: subcellular; settings: lysate
T2 sequence (whole entry): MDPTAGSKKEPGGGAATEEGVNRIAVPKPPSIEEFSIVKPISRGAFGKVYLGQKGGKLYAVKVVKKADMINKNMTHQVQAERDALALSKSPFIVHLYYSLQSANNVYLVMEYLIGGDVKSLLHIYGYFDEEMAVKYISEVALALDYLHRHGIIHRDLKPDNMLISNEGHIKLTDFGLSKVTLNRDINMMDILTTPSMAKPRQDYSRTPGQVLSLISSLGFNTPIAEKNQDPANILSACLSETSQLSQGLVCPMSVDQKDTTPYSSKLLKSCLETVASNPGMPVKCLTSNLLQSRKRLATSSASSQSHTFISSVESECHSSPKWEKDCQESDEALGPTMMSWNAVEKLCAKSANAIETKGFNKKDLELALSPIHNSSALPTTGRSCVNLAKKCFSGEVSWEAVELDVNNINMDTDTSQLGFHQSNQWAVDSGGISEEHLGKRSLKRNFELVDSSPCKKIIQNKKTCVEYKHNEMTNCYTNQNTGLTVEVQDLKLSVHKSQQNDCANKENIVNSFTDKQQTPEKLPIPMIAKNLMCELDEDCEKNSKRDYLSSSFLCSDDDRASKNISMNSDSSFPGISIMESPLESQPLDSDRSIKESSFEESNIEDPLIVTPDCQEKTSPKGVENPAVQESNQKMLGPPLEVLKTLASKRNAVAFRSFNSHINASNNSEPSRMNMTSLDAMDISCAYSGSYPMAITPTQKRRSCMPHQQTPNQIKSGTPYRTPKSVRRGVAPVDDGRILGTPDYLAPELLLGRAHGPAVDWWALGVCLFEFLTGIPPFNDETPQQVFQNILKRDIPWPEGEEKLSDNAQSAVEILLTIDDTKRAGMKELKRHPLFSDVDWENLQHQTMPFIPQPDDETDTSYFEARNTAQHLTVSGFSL

[17] = molecular target: Ribosomal protein S6 kinase alpha-1 (Homo sapiens, UniProt Q15418); assay: Selectivity interaction (ActivX KiNativ screen (kinase selectivity in THP-1 cell lysates)) EUB0000639a RPS6KA1; assay type: subcellular; settings: lysate, at 1 µM
[18] = molecular target: Phosphatidylinositol 4-kinase beta (Homo sapiens, UniProt Q9UBF8); assay: Selectivity interaction (KinomeScan (DiscoverX)) EUB0000655a PI4KB; settings: at 10 µM

Phosphorylase b kinase gamma catalytic chain, skeletal muscle/heart isoform (Homo sapiens), sequence (Q16816 whole entry, looked up, canonical isoform): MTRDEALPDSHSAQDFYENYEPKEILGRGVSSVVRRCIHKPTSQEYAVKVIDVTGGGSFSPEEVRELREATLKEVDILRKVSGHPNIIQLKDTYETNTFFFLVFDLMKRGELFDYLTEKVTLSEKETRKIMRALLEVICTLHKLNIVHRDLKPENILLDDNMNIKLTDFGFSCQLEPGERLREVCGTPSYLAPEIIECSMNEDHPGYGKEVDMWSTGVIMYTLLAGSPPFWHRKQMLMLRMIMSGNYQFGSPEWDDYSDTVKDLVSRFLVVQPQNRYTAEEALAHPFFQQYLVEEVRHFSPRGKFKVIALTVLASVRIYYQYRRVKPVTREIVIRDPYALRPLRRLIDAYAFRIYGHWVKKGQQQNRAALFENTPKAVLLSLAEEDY
ALK tyrosine kinase receptor, sequence (Q9UM73 19-1620 limits assumed): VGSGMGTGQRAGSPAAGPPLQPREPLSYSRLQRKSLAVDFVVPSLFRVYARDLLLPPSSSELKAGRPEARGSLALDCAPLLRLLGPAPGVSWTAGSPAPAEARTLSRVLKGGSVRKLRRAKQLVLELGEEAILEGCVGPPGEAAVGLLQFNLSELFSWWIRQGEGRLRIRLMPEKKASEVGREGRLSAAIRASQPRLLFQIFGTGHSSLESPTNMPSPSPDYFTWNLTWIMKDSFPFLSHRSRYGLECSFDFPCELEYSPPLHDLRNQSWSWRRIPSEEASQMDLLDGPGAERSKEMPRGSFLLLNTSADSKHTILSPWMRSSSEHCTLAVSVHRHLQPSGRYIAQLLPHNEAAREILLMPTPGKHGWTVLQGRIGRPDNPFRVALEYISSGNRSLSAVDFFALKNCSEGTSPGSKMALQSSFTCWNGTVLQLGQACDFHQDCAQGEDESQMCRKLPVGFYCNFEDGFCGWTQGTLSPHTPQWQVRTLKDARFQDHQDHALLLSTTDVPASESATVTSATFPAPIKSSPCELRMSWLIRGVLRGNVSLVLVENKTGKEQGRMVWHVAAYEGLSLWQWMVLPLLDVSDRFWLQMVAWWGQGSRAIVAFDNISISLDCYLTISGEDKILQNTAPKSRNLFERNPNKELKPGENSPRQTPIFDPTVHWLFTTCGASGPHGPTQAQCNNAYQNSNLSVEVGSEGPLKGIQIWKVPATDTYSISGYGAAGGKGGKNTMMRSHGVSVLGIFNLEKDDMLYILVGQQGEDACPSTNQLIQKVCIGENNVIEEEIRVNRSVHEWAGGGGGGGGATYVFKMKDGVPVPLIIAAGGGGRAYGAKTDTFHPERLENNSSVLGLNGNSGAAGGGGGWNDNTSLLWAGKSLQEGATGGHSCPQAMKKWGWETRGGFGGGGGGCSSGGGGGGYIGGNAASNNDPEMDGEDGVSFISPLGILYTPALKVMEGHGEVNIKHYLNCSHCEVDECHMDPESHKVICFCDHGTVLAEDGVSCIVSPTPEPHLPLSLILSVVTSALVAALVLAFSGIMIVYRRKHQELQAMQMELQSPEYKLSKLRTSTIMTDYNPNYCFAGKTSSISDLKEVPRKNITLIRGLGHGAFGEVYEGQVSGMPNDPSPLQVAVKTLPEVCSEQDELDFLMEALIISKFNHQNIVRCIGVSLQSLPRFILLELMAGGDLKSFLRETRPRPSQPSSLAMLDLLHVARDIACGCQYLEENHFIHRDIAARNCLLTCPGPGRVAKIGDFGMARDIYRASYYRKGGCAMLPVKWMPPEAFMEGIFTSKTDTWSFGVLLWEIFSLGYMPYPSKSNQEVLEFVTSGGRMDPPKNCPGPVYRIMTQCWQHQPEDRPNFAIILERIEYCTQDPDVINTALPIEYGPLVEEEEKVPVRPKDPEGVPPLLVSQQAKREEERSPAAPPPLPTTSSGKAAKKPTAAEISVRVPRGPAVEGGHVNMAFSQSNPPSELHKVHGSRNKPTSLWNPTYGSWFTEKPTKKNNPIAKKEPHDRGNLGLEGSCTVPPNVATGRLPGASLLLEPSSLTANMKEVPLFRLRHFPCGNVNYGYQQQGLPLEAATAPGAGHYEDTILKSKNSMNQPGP
Tyrosine-protein kinase Fgr (Homo sapiens), sequence (P09769 2-529 limits assumed): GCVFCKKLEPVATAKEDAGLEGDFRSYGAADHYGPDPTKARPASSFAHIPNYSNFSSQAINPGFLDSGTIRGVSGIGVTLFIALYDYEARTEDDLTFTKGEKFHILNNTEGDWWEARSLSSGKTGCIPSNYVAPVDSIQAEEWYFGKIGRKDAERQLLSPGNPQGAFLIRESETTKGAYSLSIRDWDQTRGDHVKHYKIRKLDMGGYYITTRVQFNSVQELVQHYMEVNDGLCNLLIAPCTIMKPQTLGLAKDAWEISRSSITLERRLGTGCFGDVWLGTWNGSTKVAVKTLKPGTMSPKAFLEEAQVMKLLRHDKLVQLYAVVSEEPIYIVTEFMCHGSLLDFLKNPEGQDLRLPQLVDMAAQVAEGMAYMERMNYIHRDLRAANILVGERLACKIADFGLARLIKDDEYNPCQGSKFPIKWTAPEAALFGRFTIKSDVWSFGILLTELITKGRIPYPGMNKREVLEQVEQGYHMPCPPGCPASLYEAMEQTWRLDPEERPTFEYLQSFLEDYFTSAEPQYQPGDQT
MAP kinase-interacting serine/threonine-protein kinase 2, sequence (Q9HBH9 whole entry, looked up): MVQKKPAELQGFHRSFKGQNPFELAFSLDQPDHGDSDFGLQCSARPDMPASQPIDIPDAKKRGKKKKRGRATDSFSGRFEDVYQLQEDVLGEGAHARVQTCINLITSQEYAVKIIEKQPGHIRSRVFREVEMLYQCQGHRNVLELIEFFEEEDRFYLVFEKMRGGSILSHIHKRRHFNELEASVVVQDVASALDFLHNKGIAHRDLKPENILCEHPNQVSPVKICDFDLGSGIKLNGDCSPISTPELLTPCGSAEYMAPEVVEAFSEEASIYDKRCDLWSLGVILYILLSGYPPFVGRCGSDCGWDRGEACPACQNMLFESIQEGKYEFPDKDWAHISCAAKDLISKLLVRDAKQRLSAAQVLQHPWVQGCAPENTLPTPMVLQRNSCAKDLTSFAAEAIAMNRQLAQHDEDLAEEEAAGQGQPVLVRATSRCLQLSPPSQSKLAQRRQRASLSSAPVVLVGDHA
Ribosomal protein S6 kinase alpha-1, sequence (Q15418 whole entry): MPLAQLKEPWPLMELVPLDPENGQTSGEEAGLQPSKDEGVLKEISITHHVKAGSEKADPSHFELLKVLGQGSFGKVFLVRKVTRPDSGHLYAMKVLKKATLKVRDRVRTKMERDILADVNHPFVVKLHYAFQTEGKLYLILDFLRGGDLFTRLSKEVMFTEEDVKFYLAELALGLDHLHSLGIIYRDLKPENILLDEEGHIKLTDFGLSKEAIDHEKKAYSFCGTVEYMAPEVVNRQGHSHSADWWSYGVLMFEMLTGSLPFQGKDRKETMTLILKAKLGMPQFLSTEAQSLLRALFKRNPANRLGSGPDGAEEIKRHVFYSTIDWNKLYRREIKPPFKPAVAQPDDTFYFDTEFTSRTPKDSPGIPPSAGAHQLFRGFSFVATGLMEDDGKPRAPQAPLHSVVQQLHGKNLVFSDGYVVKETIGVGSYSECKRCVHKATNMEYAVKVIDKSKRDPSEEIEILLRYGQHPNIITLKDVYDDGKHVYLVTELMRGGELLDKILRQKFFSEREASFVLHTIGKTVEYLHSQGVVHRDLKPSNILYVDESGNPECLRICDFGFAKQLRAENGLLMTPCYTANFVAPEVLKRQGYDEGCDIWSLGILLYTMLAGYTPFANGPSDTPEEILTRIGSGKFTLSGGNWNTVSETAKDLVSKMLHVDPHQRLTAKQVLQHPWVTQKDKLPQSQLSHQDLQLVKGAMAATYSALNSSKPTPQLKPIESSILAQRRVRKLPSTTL
Mitogen-activated protein kinase 14, sequence (Q16539 whole entry): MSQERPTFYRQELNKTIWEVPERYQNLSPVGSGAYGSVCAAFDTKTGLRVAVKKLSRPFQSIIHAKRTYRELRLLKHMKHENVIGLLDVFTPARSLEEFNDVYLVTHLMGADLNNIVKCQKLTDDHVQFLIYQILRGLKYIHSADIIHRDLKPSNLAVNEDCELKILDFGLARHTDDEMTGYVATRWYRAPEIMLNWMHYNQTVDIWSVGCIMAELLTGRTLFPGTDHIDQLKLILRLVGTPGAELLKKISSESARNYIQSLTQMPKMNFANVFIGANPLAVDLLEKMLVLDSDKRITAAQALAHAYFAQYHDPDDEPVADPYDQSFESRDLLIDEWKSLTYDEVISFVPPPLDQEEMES
Dual specificity mitogen-activated protein kinase kinase 1, sequence (Q02750 whole entry): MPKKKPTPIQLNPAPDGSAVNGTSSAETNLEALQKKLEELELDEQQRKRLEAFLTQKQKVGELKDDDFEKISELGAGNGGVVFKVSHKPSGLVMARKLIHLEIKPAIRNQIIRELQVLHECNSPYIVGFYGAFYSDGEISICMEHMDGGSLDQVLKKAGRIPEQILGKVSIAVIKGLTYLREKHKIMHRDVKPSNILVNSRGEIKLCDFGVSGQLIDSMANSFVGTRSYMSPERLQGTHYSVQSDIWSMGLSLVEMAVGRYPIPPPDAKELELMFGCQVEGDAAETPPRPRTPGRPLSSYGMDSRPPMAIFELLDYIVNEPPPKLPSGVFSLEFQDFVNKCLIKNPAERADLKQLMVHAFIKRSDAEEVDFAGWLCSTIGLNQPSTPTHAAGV
Cyclin-dependent kinase 5/CDK5 activator 1 (Homo sapiens), sequence (Q00535 whole entry): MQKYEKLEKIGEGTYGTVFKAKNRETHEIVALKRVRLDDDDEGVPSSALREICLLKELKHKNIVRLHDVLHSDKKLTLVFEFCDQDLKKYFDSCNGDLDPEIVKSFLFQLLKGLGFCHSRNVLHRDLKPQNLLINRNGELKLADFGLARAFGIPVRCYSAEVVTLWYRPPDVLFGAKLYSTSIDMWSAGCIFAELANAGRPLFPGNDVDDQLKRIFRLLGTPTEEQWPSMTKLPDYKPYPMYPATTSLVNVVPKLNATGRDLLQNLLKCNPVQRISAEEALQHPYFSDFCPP
Cyclin-dependent kinase 5/CDK5 activator 1 (Homo sapiens), sequence (Q15078 99-307 partner limits assumed): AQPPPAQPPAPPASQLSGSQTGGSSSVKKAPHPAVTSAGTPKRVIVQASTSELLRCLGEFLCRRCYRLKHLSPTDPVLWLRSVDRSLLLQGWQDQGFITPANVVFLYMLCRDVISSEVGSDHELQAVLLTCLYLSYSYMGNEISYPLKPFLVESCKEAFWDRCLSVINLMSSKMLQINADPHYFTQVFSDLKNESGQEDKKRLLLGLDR

COc1cc(N(C)c2ccnc3ccc(C(F)(F)F)cc23)cc(OC)c1OC
% binding [1]: 73%

C=CC(=O)Nc1cc(-n2c(=O)ccc3cnc4ccc(-c5ccc(NS(C)(=O)=O)cc5)cc4c32)ccc1C
% of control ([2]; at 1 µM): 100%
% of control ([2]; at 10 µM): 100%
% of control ([3]; at 1 µM): 86%
% of control ([3]; at 10 µM): 97%

Nc1cnc(N2CCc3cc(S(=O)(=O)Nc4c(F)cc(Cl)cc4F)cc(N4CCCC4=O)c32)nc1 [TP-020n]
% of inhibition [4]: 1.45%

Cn1cc(-n2cnc3c(NCc4nc5cc(Cl)c(Cl)cc5[nH]4)nc(N4CCOCC4)nc32)cn1
% of inhibition [5]: -3.27%
% of inhibition [6]: -10.1%
% of inhibition [7]: -18.3%

O=C(NOC[C@H](O)CO)c1ccc(F)c(F)c1Nc1ccc(I)cc1F
% of control [8]: 100%
% of control [9]: 100%

CCC(=O)N1CC[C@H](Nc2ncnc3c2CN(c2cnc(OC)c(C(F)(F)F)c2)CC3)C1 [LENIOLISIB]
IC50 [10]: > 30 µM

O[C@H]1CC[C@H](Nc2ncc3nc(Nc4c(F)cc(F)cc4F)n([C@H]4CCOC4)c3n2)CC1
% of control [11]: 100%

CC[C@@H]1[C@H](F)C(=O)N[C@@H]1COc1nccc2cc(C(N)=O)c(OC)cc12 [ZIMLOVISERTIB]
% of inhibition [12]: 4.16%
% of inhibition [13]: 16.5%
% of inhibition [14]: 8.5%
% of inhibition [15]: 20.4%
% of inhibition ([16]; at 0.01 µM): -10.8%
% of inhibition ([16]; at 0.04 µM): 0.7%
% of inhibition ([16]; at 0.2 µM): 12.7%
% of inhibition ([16]; at 1 µM): 37.8%
% of inhibition ([16]; at 5 µM): 78.5%
% of inhibition [17]: -3.5%

CN(C)CCOc1ccc(-c2nc(-c3ccncc3)c(-c3ccc4c(c3)CC/C4=N\O)[nH]2)cc1
% of control [18]: 88%
